# In patent publication US20080260774A1, “Alpha-galactosyl ceramide analogs and their use as immunotherapies” (priority 2007, published 2008):
# Test system: HA-specific peptide (9-mer)
# Conditions: mouse, in vivo
smiles,measurement,value
"CCCCCCCCCCCCCCCCCCCCCCCCCC(=O)N[C@@H](CO[C@H]1O[C@H](CO)[C@H](O)[C@H](O)[C@H]1O)[C@H](O)[C@H](O)CCCCCCCCCCCCCC [C1, α-Galactosyl ceramide, reference compound]",IFN-γ secreting cells,increased
